Laboratory results as given in the supplement of paper PMC4862054.

Key:
Settings in all cases: incubation time: 72 h
BT-474 [1] = experiment: normalised viability (% of control), CellTiter-Blue; higher = more viable cells (about 100 = DMSO control)
In short: (§1)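 384-well plates were pre-loaded with compound in 5 µl medium before 20 µl of breast cancer cell suspension was seeded. Following 72 h incubation, 2.5 µl CellTiter-Blue reagent was added for 2 h at 37 °C. Fluorescence was read at 560/590 nm and plates were normalised to vehicle (100) and a positive kill control (0), checked by Z'-factor. Normalised viability is reported at a single listed concentration of the series.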

CAL-120 = experiment: as above
In short: as §1

CAL-85-1 [2] = experiment: as above
In short: as §1

HCC1599 [3] = experiment: as above
In short: as §1

MDA-MB-436 [4] = experiment: as above
In short: as §1

MDA-MB-468 = experiment: as above
In short: as §1

SK-BR-3 = experiment: as above
In short: as §1

CAL-148 [5] = experiment: normalised viability (% of control), CellTiter-Blue; higher = more viable cells (about 100 = DMSO control)
Method: (§2)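 DSRT, CellTiter-Blue viability, 72 h incubation. Signal is normalised to DMSO and benzethonium chloride controls. Value is the normalised response at dose 7.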

CAL-51 [6] = experiment: as above
Method: as §2

CAL-85-1 [7] = experiment: as above; remark: listed apart in the source
Method: as §2

DU-4475 = experiment: as above
Method: as §2

HDQ-P1 [8] = experiment: as above
Method: as §2

MDA-MB-453 [9] = experiment: as above
Method: as §2

BT-474 [10] = experiment: normalised response (% of control), CellTox Green; higher = less cell death (100 = DMSO, 0 = benzethonium chloride kill control)
In short: (§3)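 Each value is the plate-normalised signal at one concentration of the series. Breast cancer cell lines (20 µl suspension) were incubated 72 h in 384-well plates with compound at 5 concentrations in 10-fold steps over a compound-specific 10,000-fold range. CellTox Green and then CellTiter-Glo were read, and each plate was scaled to 0.1 % DMSO (100) and a positive kill control (0).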

BT-549 = experiment: as above
In short: as §3

CAL-148 [11] = experiment: as above
In short: as §3

CAL-51 [12] = experiment: as above
In short: as §3

CAL-85-1 [13] = experiment: as above
In short: as §3

HCC1143 = experiment: as above
In short: as §3

HCC1599 [14] = experiment: as above
In short: as §3

HDQ-P1 [15] = experiment: as above
In short: as §3

Hs578T = experiment: as above
In short: as §3

MDA-MB-231 = experiment: as above
In short: as §3

MDA-MB-436 [16] = experiment: as above
In short: as §3

MDA-MB-453 [17] = experiment: as above
In short: as §3

MFM-223 = experiment: as above
In short: as §3

Which results are given for `Cn1nnc2c(C(N)=O)ncn2c1=O` [Temozolomide]?
normalised viability (BT-474 [1]; 10 nM): 94.7%; normalised viability (BT-474 [1]; 1000 nM): 100%; normalised viability (BT-474 [1]; 10000 nM): 87.5%; normalised viability (CAL-120; 10 nM): 101%; normalised viability (CAL-120; 1000 nM): 104%; normalised viability (CAL-120; 10000 nM): 100%; normalised viability (CAL-85-1 [2]; 3 nM): 102%; normalised viability (CAL-85-1 [2]; 30 nM): 98.2%; normalised viability (CAL-85-1 [2]; 100 nM): 107%; normalised viability (HCC1599 [3]; 10 nM): 103%; normalised viability (HCC1599 [3]; 1000 nM): 89.8%; normalised viability (HCC1599 [3]; 10000 nM): 117%; normalised viability (MDA-MB-436 [4]; 10 nM): 102%; normalised viability (MDA-MB-436 [4]; 1000 nM): 91.3%; normalised viability (MDA-MB-436 [4]; 10000 nM): 101%; normalised viability (MDA-MB-468; 10 nM): 92.3%; normalised viability (MDA-MB-468; 1000 nM): 89.5%; normalised viability (MDA-MB-468; 10000 nM): 99.1%; normalised viability (SK-BR-3; 10 nM): 95.1%; normalised viability (SK-BR-3; 1000 nM): 99.8%; normalised viability (SK-BR-3; 10000 nM): 113%

What does the source list for `CC[C@@H]1C(=O)N(C)c2cnc(Nc3ccc(C(=O)N[C@H]4CC[C@H](N5CCN(CC6CC6)CC5)CC4)cc3OC)nc2N1C(C)C` [Volasertib]?
normalised viability (BT-474 [1]; 1 nM): 127%; normalised viability (BT-474 [1]; 100 nM): 56.6%; normalised viability (BT-474 [1]; 1000 nM): 96.8%; normalised viability (CAL-120; 1 nM): 91.1%; normalised viability (CAL-120; 100 nM): 26.8%; normalised viability (CAL-120; 1000 nM): 24.7%; normalised viability (CAL-85-1 [2]; 0.3 nM): 96.4%; normalised viability (CAL-85-1 [2]; 3 nM): 86.7%; normalised viability (CAL-85-1 [2]; 10 nM): 82.3%; normalised viability (HCC1599 [3]; 1 nM): 94.6%; normalised viability (HCC1599 [3]; 100 nM): 86.2%; normalised viability (HCC1599 [3]; 1000 nM): 74%; normalised viability (MDA-MB-436 [4]; 1 nM): 113%; normalised viability (MDA-MB-436 [4]; 100 nM): 83.5%; normalised viability (MDA-MB-436 [4]; 1000 nM): 80.8%; normalised viability (MDA-MB-468; 1 nM): 104%; normalised viability (MDA-MB-468; 100 nM): 45%; normalised viability (MDA-MB-468; 1000 nM): 51.9%; normalised viability (SK-BR-3; 1 nM): 105%; normalised viability (SK-BR-3; 100 nM): 20.7%; normalised viability (SK-BR-3; 1000 nM): 24.1%

For `CC[C@@H]1C(=O)N(C)c2cnc(Nc3ccc(C(=O)N[C@H]4CC[C@H](N5CCN(CC6CC6)CC5)CC4)cc3OC)nc2N1C(C)C` [Volasertib] (100 nM), which normalised viability (CAL-148 [5]) is on record?
Its normalised viability is 23.4%.

And the normalised viability (CAL-51 [6])?
The normalised viability was 15.7%.

What about the normalised viability (CAL-85-1 [7]) of the same compound?
The normalised viability was 42%.

What about the normalised viability (DU-4475) of the same compound?
The normalised viability was 21%.

What about the normalised viability (HDQ-P1 [8]) of the same compound?
Its normalised viability is 51.7%.

And the normalised viability (MDA-MB-453 [9])?
The normalised viability was 24.5%.

And the normalised response (BT-474 [10])?
Its normalised response is 94.5%.

What about the normalised response (BT-549) of the same compound?
Its normalised response is 79%.

And the normalised response (CAL-148 [11])?
Its normalised response is 31.8%.

And the normalised response (CAL-51 [12])?
Its normalised response is 46.4%.

What about the normalised response (CAL-85-1 [13]) of the same compound?
The normalised response was 57%.

And the normalised response (HCC1143)?
Its normalised response is 81.8%.

And the normalised response (HCC1599 [14])?
Its normalised response is 72.2%.

And the normalised response (HDQ-P1 [15])?
Its normalised response is -27.2%.

What about the normalised response (Hs578T) of the same compound?
Its normalised response is 61%.

And the normalised response (MDA-MB-231)?
The normalised response was -0.74%.

What about the normalised response (MDA-MB-436 [16]) of the same compound?
Its normalised response is 64.2%.

And the normalised response (MDA-MB-453 [17])?
The normalised response was 98%.

And the normalised response (MFM-223)?
The normalised response was 53.5%.
